According to US20040009927A1, “Methods and compounds for reducing biofilm formulation” (priority 2002, published 2004):

Tested on: MG1655 and its csrA mutant TRMG1655, cya mutants and cya wild type
Conditions: cAMP 2 or 5 mM in growth medium; in most cases

## Nc1ncnc2c1ncn2[C@@H]1O[C@@H]2COP(=O)(O)O[C@H]2[C@H]1O [cAMP, cyclic AMP]
  biofilm formation by cya wild type strains: increased biofilm formation
